The text below walks through data of patent US4767749A, “Ester of (triarylphosphoranylidene)carbamic acid having diuretic and ability to lower plasma renin properties” (American Cyanamid Company, priority 1986, dated 1988).

Read-outs that look alike come from different tables or passages of the source.

The subject of experiment [1] is cardiac contractility in anesthetized dogs. As to the kind of experiment: Effect on cardiac contractility in anesthetized dogs, intravenous. The format is in vivo, dog. To be noted: intravenous administration; same effect as in isolated rat heart (Table IV).
Experiment [2] relates to spontaneously hypertensive rats (SHR). Briefly: Diuretic activity in spontaneously hypertensive rats. It counts as in vivo, male spontaneously hypertensive rats (Okamoto strain). As to conditions: 100 mg/kg by gavage with 0.9% sodium chloride loading 25 ml/kg; 0-5 hour urine. Summed up: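 Male Okamoto SHR (about 300 g, 16 weeks old) given test compound by gavage at 100 mg/kg, suspended in 3% preboiled starch, with 0.9% NaCl load at 25 ml/kg at zero hour. Urine collected 0–5 h in metabolism cages. Urinary sodium and potassium reported as mEq excreted.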

The next experiment deals with isolated rat hearts. Briefly: Cardiodynamic effects in the isolated perfused rat heart preparation. To be noted: for activation at 1 µg/mL / activation at 4 µg/mL / activation at 8 µg/mL: Rattus norvegicus; for HR (mean % change): rate of cardiac contraction. How it is done: The effect of (triphenylphospharnylidene)carbamic acid, ethyl ester on cardiac contractility was determined by the following test.
Isolated rat hearts were prepared and perfused essentially as described by Neely and Rovetto, Techniques for perfusing isolated rat hearts., in Methods of Enzymology, 24, part D, 43-60 (1975), J. G. Hardman and B. W. O'Malley (eds.), Academic Press, New York, N.Y. The hearts were cooled in ice cold saline and transferred to a Langendorff apparatus and perfused in a retrograde fashion with oxygenated Krebs-Henseleit buffer at 37° C. A 2-0 silk thread was secured to the left ventricular apex and run via pulleys to a force displacement transducer (Grass Instrument Co., model FT03C). Force of contraction (F), the first derivative of force with respect to time (dF/dt), and rate of cardiac contraction (HR) were monitored on a polygraph recorder (Grass Instrument Co., model 7D).
The perfusion medium was a modified Krebs-Henseleit buffer of the following composition:
This medium was equilibrated with 95% oxygen:5% carbon dioxide at 37° C.
(Triphenylphosphoranylidene)carbamic acid, ethyl ester was dissolved in absolute ethanol at a concentration of 10 mg/ml and then diluted with Krebs-Henseleit buffer to the required stock concentration. The stock solution was infused at a constant rate by a syringe pump into the flow of buffer presented to the isolated heart at a rate necessary to achieve the desired final concentration.

The subject of experiment [3] is plasma renin activity. Briefly: Lowering of plasma renin activity in normal conscious rats. The format is in vivo, male Wistar rats. To be noted: single 25 mg/kg oral dose, 6 rats. How it is done: Compounds were tested for their ability to lower plasma renin activity of conscious, male Wistar rats (180-200 g, Charles River Labs.). Test agents were compounded in a mortar and pestle with 3% preboiled starch suspension. Rats were dosed orally by gavage with 25 mg/kg test agent in a dose volume of 2 ml/kg. At time zero and 1/3, 1, 3 and 6 hours relative to dosing, rats were sacrificed by decapitation and the first 3 seconds of blood collected in two chilled Vacutainer® tubes (Becton-Dickinson, Rutherford, N.J.) containing 40 μl of 150 mg/ml tripotassium EDTA. Plasma fractions, obtained by centrifugation for 20 minutes at 4° C. and 3000 G, were incubated (one of each pair at 37° C., the other at 4° C.) at pH 6.8 in 50 mM phosphate buffer to produce angiotensin I. The incubates contained peptidase inhibitors to prevent angiotensin I degradation and the buffer contained one mg/ml lysozyme (Sigma Grade III) used as an antiabsorbant. The incubates were diluted 20 fold in cold Tris buffer (pH adjusted to 7.4 with glacial acetic acid) also containing one mg/ml lysozyme, and then frozen. Diluted incubates were assayed within 3 days for angiotensin I content by radioimmunoassay according to a modification of the method of Haber, et al., J. Clin. Endocrin., 29, 1349-1355 (1969). Renin activity is calculated as the rate of production of angiotensin I (nanograms of angiotensin I/ml plasma/hour at 37° C.) less controls (rate at 4° C.).

Experiment [4] relates to plasma renin activity. As to the kind of experiment: Inhibition of evoked (drug-induced) elevation of plasma renin activity in conscious rats. The format is in vivo, male Wistar rats. To be noted: Rattus norvegicus, 30 min before provocative treatment. How it is done: Inhibition of evoked increase of plasma renin activity was determined by the following test.
Compounds were tested for their ability to prevent drug-induced elevation of plasma renin activity (PRA) in concious, male Wistar rats (180-200 g, Charles River Lab.). PRA elevation was induced by a combined oral provacative treatment (C) of hydrochlorothiazide (10 mg/kg) and 1-(3-benzoyl-3-mercapto-2-methylpropionyl)-L-proline, acetate (U.S. Pat. No. 4,226,775) (one mg/kg), prepared by compounding in a mortar and pestle with preboiled 3% starch suspension. This treatment provided the daily maximum PRA. The daily minimum PRA was obtained from rats given oral starch suspension (S) alone. The magnitude of drug effect on PRA elevation was ascertained from rats pretreated orally with test agent (D), at the indicated doses, 30 minutes prior to administration of provacative treatment (C). The test agent was also compounded in preboiled 3% starch suspension. The dose volumes for both pretreatment and provocative treatment were 2 ml/kg. One hour after provocative treatment the rats were sacrificed by decapitation and the first 3 seconds of blood collected in two chilled Vacutainer® tubes (Becton-Dickinson, Rutherford, N.J.) containing 40 μl of 150 mg/ml tripotassium EDTA. The plasma fractions, obtained by centrifugation for 20 minutes at 4° C. and 3000 G, were incubated (one of each pair at 37° C., the other at 4° C.) at pH 6.8 in 50 mM phosphate buffer to produce angiotensin I. The incubates contained peptidase inhibitors to prevent angiotensin I degradation and the incubation buffer contained one mg/ml lysozyme (Sigma Grade III) used as an antiabsorbant. The incubates were diluted 20 fold in cold 100 mM Tris buffer (pH adjusted to 7.4 with glacial acetic acid) also containing one mg/ml lysozyme, and then frozen. Diluted incubates were assayed within 3 days for angiotensin I content by radioimmunoassay according to a modification of the method of Haber, et al., J. Clin. Endocrin., 29, 1349-1355 (1969).
PRA is calculated as follows:
PRA(ng AI/hour/ml plasma)=PRA 37° C.-PRA 4° C.
Percent inhibition of PRA elevation is calculated as follows: [formula]

As a reminder, the inhibition in vivo is the relative decrease from the control value, in per cent. A higher inhibition in vivo goes with strong suppression. Take `CCOC(=O)N=P(c1ccccc1)(c1ccccc1)c1ccccc1` [(Triphenylphosphoranylidene)carbamic acid, ethyl ester]: the “effect on cardiac contractility in anesthetized dogs” value in experiment [1] is reported as “The same effect has been achieved”. For the same molecule, the “Potassium (urinary excretion)” value in experiment [2] is 0.50 mEQ/5 Hours. Besides, the “Sodium (urinary excretion)” value in experiment [2] came to 1.86 mEQ/5 Hours. Further, the “Volume (urine)” value in experiment [2] amounted to 15.5 mL. The activation at 1 µg/mL was 5% in the experiment on isolated rat hearts (final drug concentration 1 mg/liter, 7 hearts, read-out: Concentration Force (g) (mean % change)) and 6% in the experiment on isolated rat hearts (final drug concentration 1 mg/liter, 7 hearts, read-out: dF/dt (g/sec) (mean % change)). Moreover, the activation at 4 µg/mL came out at 18% in the experiment with isolated rat hearts (final drug concentration 4 mg/liter, 6 hearts, read-out: Concentration Force (g) (mean % change)) and 16% in the experiment on isolated rat hearts (final drug concentration 4 mg/liter, 6 hearts, read-out: dF/dt (g/sec) (mean % change)). The activation at 8 µg/mL with isolated rat hearts (final drug concentration 8 mg/liter, 5 hearts, read-out: Concentration Force (g) (mean % change)) worked out at 24%; with isolated rat hearts (final drug concentration 8 mg/liter, 5 hearts, read-out: dF/dt (g/sec) (mean % change)) it was 21%. In addition, the “HR (mean % change)” value in the experiment on isolated rat hearts (final drug concentration 1 mg/liter, 7 hearts) is given as -3 mean % change; in the experiment on isolated rat hearts (final drug concentration 4 mg/liter, 6 hearts) it was -2 mean % change; in the experiment on isolated rat hearts (final drug concentration 8 mg/liter, 5 hearts), -2 mean % change. Further, the “% Lowering of plasma renin activity” value is 0% in the experiment on plasma renin activity [3] (0 hours after dose); 38% with plasma renin activity [3] (1/3 hour after dose); 74% in the experiment with plasma renin activity [3] (1 hour after dose); 59% in the experiment on plasma renin activity [3] (3 hours after dose); 40% with plasma renin activity [3] (6 hours after dose). This molecule returned an inhibition in vivo at 3 mg/kg in the experiment on plasma renin activity [4] (3 mg/kg oral) of 22%. This molecule also showed an inhibition in vivo at 5 mg/kg in the experiment on plasma renin activity [4] (5 mg/kg oral) of 29%. In the experiment with plasma renin activity [4] (7 mg/kg oral), this molecule returned an inhibition in vivo at 7 mg/kg of 46%. Further, in the experiment on plasma renin activity [4] (10 mg/kg oral), 10 mg/kg produced 81% inhibition in vivo. This molecule also gave an inhibition in vivo at 15 mg/kg in the experiment with plasma renin activity [4] (15 mg/kg oral) of 79%. The molecule further came in with an inhibition in vivo at 25 mg/kg with plasma renin activity [4] (25 mg/kg oral) of 80%.
